US20250387358A1 (SpringWorks Therapeutics, Inc., priority 2024, published 2025)

System: NF1-associated plexiform neurofibromas (PNs)
Assay: Phase 2b trial, efficacy by BICR volumetric MRI per REiNS criteria
Assay type: in vivo, human
Details: observed time
Experimental: Participants were screened (assessed for eligibility as described below). […] The median age was 34.5 years (range 18 to 69 years); 85% were white and 64% were female. […] The most commonly reported morbidities were pain (90%) and disfigurement or major deformity (52%).
The median age was 10 years (range 2 to 17 years); 66% were white and 54% were female. […] The most commonly reported morbidities were pain (70%) and disfigurement or major deformity (50%).
Study treatment was administered orally at a twice daily (BID) dose specified in the table below. Dosing was on a 28-day Cycle (4-week course) with a 3 week on/1 week off schedule. The treatment period will last for up to 24 Cycles followed by a 30-day Safety Follow-Up period.
A partial response was defined as PN decrease ≥20% compared to baseline using centrally read MRI volumetric analysis.
The major efficacy outcome measure was confirmed objective response rate (ORR), defined as the percentage of patients with complete response (disappearance of the target PN) or confirmed partial response (≥20% reduction in PN volume confirmed at a subsequent tumor assessment within 2-6 months during the 24-cycle treatment phase). Responses were assessed by blinded independent central review (BICR) using volumetric magnetic resonance imaging (MRI) analysis per Response Evaluation in Neurofibromatosis and Schwannomatosis (REINS) criteria. A secondary efficacy objective was to determine the duration of response for patients who achieved a confirmed objective response.

[1] = Pediatric, first DoR line (r12)
[2] = Pediatric, second DoR line (r13)

`O=C(NOC[C@H](O)CO)c1ccc(F)c(F)c1Nc1ccc(I)cc1F` (single isomer, unassigned) [mirdametinib] was tested, and the “DoR ≥12 months, % of responders” value (Adult, first DoR line (r12)) was “(88%)”, the “DoR ≥12 months, number of responders” value (Adult, first DoR line (r12)) was 21 and the “DoR ≥12 months, % of responders” value (Adult, second DoR line (r13)) was “(48%)”. The “DoR ≥12 months, number of responders” value (Adult, second DoR line (r13)) was 14, the “DoR ≥12 months, % of responders” value [1] was “(90%)” and the “DoR ≥12 months, number of responders” value [1] was 26. For the same compound, the “DoR ≥12 months, % of responders” value [2] was “(66%)” and the “DoR ≥12 months, number of responders” value [2] was 19.
